Measurements reported in EP2140864A2 (H. Lundbeck A/S, priority 2001, dated 2002).
Like-named read-outs stand apart in the source and are kept apart here.

Experiments:
Human 5HT2A Receptor = target: T1, Human 5HT2A Receptor (Homo sapiens, UniProt P28223); assay: Radioligand binding, 5HT2A receptor ([3H]ketanserin)
T1 construct: expressed in transfected cells; host or cells: COS-7 cells (pCEXV-3 vector, DEAE-dextran)
Protocol: Human 5HT2A Receptor: The coding sequence of the human 5HT2A receptor was obtained from a human brain cortex cDNA library, and cloned into the cloning site of pCEXV-3 eukaryotic expression vector. This construct was transfected into COS-7 cells by the DEAE-dextran method (Cullen, 1987). Cells were harvested after 72 hours and lysed by sonication in 5 mM Tris-HCl, 5 mM EDTA, pH 7.5. The cell lysates were subjected to centrifugation at 1000 rpm for 5 minutes at 4°C, and the supernatant was subjected to centrifugation at 30,000 x g for 20 minutes at 4°C. The pellet was suspended in 50 mM Tris-HCl buffer (pH 7.7 at room temperature) containing 10 mM MgS04, 0.5 mM EDTA, and 0.1% ascorbate. The affinity of compounds at 5HT2A receptors were determined in equilibrium competition binding assays using [^3H]ketanserin (1 nM). Nonspecific binding was defined by the addition of 10 µM mianserin. The bound radioligand was separated by filtration through GF/B filters using a cell harvester.
(§1) Binding data were analyzed using nonlinear regression and statistical techniques available in the GraphPAD Prism package (San Diego, CA). Enzymatic assay data were derived from a standard curve of reference compound data.

rat D3 receptors = target: T2, rat D3 receptors (Rattus norvegicus, UniProt P19020); assay: Radioligand binding, dopamine D3 receptor
T2 construct: purchased BioSignal, Inc. (Montreal, Canada)
Source text: (§2) Other receptors: Cell membranes expressing human dopamine D1, D2, D4 and rat D3 receptors were purchased through BioSignal, Inc. (Montreal, Canada). Binding assays using the histamine H1 receptor; dopamine receptors; and α1A, α1E, and α2 adrenergic receptors may be carried out according to the procedures described in U.S. Patent No. 5,780,485, the disclosure of which is hereby incorporated by reference in its entirety into this application. Binding assays using the dopamine D5 receptor may be carried out according to the procedures described in U.S. Patent No. 5,882,855, the disclosure of which is hereby incorporated by reference in its entirety into this application. Binding assays for the human α1D adrenergic receptor may be carried out according to the procedures described in U.S. Patent No. 6,156,518, the disclosure of which is hereby incorporated by reference in its entirety into this application.
as §1

rat 5HT2C receptor = target: T3, rat 5HT2C receptor (Rattus norvegicus, UniProt P08909); assay: Radioligand binding, 5HT2C receptor
T3 construct: expressed in transfected cells
T3 sequence (P08909 33-460): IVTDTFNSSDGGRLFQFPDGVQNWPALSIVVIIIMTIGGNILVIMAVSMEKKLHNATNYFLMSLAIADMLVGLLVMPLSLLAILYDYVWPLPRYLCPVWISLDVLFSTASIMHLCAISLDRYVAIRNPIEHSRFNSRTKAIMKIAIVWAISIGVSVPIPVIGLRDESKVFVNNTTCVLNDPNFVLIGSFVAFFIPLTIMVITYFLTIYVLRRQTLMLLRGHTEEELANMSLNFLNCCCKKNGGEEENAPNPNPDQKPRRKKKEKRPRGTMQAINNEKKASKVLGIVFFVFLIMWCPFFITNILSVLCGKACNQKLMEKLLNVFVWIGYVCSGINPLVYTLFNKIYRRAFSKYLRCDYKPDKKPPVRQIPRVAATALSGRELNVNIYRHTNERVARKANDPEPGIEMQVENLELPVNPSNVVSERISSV
Protocol: Other 5-HT Receptors: Other serotonin receptor binding assays were performed according to published methods: rat 5HT2C receptor (Julius et al., 1988); and 5-HT6 (Monsma, et al., 1993). The binding assays using the 5-HT4 receptor were performed according to the procedures described in U.S. Patent No. 5,766,879, the disclosure of which is hereby incorporated by reference in its entirety into this application.
as §1

human dopamine D4 = target: T4, human dopamine D4 (Homo sapiens, UniProt P21917); assay: Radioligand binding, dopamine D4 receptor
T4 construct: purchased BioSignal, Inc. (Montreal, Canada)
T4 sequence (P21917 1-419): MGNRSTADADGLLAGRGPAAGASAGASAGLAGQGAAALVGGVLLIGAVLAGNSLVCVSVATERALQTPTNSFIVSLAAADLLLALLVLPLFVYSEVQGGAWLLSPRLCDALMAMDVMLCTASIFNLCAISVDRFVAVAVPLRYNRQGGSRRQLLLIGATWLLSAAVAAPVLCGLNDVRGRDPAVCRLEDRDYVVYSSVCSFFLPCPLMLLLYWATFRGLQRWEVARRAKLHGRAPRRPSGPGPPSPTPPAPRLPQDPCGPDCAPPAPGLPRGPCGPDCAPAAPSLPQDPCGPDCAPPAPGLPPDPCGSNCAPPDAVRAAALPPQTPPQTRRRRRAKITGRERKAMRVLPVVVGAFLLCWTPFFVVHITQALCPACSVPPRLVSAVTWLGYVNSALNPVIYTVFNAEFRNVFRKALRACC
Source text: as §2, §1

human 5HT1B = target: T5, human 5HT1B (Homo sapiens, UniProt P28222); assay: Radioligand binding, 5HT1B receptor ([3H]-serotonin)
T5 construct: expressed in transfected cells
Protocol: Human 5HT1B, 5HT1D, 5HT1E, 5HT1F, and 5HT7 Receptors: The cell lysates of LM(tk-) clonal cell line stably transfected with the genes encoding each of these 5HT receptor-subtypes were prepared as described above. Cell membranes were suspended in 50mM Tris-HCl buffer (pH 7.4 at 37°C) containing 10 mM MgCl2, 0.2 mM EDTA, 10 µM pargyline, and 0.1% ascorbate. […] Nonspecific binding was determined in the presence of 10 µM serotonin. The bound radioligand was separated by filtration through GF/B filters using a cell harvester.
as §1

[1] = Table 8; Ki h5HT2A divided by Ki hGAL3
[2] = Table 10; Ki rD3 divided by Ki hGAL3
[3] = Table 8; Ki r5HT2C divided by Ki hGAL3
[4] = Table 10; Ki hD4 divided by Ki hGAL3
[5] = Table 8; Ki h5HT1B divided by Ki hGAL3

T5 sequence (P28222 whole entry): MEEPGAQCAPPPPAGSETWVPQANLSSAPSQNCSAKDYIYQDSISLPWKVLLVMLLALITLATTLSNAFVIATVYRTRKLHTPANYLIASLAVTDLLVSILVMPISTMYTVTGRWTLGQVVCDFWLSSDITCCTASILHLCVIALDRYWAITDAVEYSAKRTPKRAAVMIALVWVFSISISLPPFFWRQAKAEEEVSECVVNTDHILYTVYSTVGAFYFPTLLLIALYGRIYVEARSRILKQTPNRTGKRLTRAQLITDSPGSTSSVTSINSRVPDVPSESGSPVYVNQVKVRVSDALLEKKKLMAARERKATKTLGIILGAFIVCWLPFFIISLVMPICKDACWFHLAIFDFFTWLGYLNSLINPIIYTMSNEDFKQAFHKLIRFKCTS
T2 sequence (P19020 whole entry): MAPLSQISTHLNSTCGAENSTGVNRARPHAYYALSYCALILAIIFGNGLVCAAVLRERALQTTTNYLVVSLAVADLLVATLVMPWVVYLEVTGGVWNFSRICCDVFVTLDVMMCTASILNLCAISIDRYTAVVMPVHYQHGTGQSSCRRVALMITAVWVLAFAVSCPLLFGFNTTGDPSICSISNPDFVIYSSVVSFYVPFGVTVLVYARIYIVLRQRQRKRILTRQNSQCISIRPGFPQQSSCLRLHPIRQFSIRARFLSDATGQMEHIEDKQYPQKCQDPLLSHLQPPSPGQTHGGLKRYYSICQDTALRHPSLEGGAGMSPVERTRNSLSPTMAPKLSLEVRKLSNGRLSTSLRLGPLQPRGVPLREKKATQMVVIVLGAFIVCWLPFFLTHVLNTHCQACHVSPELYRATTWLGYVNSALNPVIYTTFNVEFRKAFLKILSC
T1 sequence (P28223 whole entry): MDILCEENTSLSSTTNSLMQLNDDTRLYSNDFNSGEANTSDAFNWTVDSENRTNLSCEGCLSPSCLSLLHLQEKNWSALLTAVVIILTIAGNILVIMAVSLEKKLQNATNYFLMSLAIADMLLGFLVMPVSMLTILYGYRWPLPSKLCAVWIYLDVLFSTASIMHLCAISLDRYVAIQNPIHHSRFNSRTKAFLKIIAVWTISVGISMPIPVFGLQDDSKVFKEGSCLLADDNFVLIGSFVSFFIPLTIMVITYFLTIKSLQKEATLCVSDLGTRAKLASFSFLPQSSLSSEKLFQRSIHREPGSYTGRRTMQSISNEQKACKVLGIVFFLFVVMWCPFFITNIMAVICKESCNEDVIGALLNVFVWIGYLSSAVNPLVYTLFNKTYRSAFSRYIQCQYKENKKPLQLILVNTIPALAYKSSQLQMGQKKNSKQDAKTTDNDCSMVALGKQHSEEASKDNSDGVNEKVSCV

SMILES: Cc1ccc(Nc2cc(N3CCCCC3)nc(N(C)CCc3c[nH]c4ccccc34)n2)cc1 [Example 11]
- Ki (Human 5HT2A Receptor; Table 7; read-out: h5HT2A Ki): 6.71 µM
- selectivity ratio h5HT2A (Human 5HT2A Receptor; [1]): >30
- Ki (rat D3 receptors; Table 9; read-out: rD3 Ki): 2.14 µM
- selectivity ratio rD3 (rat D3 receptors; [2]): 24
- Ki (rat 5HT2C receptor; Table 7; read-out: r5HT2C Ki): 0.802 µM
- selectivity ratio r5HT2C (rat 5HT2C receptor; [3]): 9
- Ki (human dopamine D4; Table 9; read-out: hD4 Ki): 4.83 µM
- selectivity ratio hD4 (human dopamine D4; [4]): >30
- Ki (human 5HT1B; Table 7; read-out: h5HT1B Ki): 0.101 µM
- selectivity ratio h5HT1B (human 5HT1B; [5]): 1

SMILES: CN(CCc1c[nH]c2ccccc12)c1nc(Nc2ccc(F)c(F)c2)cc(N2CCCCC2)n1 [Example 15]
- Ki (Human 5HT2A Receptor; Table 7; read-out: h5HT2A Ki): 11.3 µM
- selectivity ratio h5HT2A (Human 5HT2A Receptor; [1]): >100
- Ki (rat D3 receptors; Table 9; read-out: rD3 Ki): 8.81 µM
- selectivity ratio rD3 (rat D3 receptors; [2]): >100
- Ki (rat 5HT2C receptor; Table 7; read-out: r5HT2C Ki): 0.572 µM
- selectivity ratio r5HT2C (rat 5HT2C receptor; [3]): 8
- Ki (human dopamine D4; Table 9; read-out: hD4 Ki): 13.2 µM
- selectivity ratio hD4 (human dopamine D4; [4]): >30
- Ki (human 5HT1B; Table 7; read-out: h5HT1B Ki): 0.487 µM
- selectivity ratio h5HT1B (human 5HT1B; [5]): 7

SMILES: COc1cccc(Nc2cc(N3CCCCC3)nc(N(C)CCc3c[nH]c4ccccc34)n2)c1 [Example 17]
- Ki (Human 5HT2A Receptor; Table 7; read-out: h5HT2A Ki): 7.16 µM
- selectivity ratio h5HT2A (Human 5HT2A Receptor; [1]): >30
- Ki (rat D3 receptors; Table 9; read-out: rD3 Ki): 2.48 µM
- selectivity ratio rD3 (rat D3 receptors; [2]): 28
- Ki (rat 5HT2C receptor; Table 7; read-out: r5HT2C Ki): 0.562 µM
- selectivity ratio r5HT2C (rat 5HT2C receptor; [3]): 6
- Ki (human dopamine D4; Table 9; read-out: hD4 Ki): 22.2 µM
- selectivity ratio hD4 (human dopamine D4; [4]): >100
- Ki (human 5HT1B; Table 7; read-out: h5HT1B Ki): 0.407 µM
- selectivity ratio h5HT1B (human 5HT1B; [5]): 5

SMILES: Cc1ccc(Nc2cc(N3CCCCC3)nc(N(C)CCc3ccccc3)n2)cc1 [Example 22]
- Ki (Human 5HT2A Receptor; Table 7; read-out: h5HT2A Ki): 20.7 µM
- selectivity ratio h5HT2A (Human 5HT2A Receptor; [1]): >100
- Ki (rat D3 receptors; Table 9; read-out: rD3 Ki): 5.66 µM
- selectivity ratio rD3 (rat D3 receptors; [2]): >100
- Ki (rat 5HT2C receptor; Table 7; read-out: r5HT2C Ki): 1.72 µM
- selectivity ratio r5HT2C (rat 5HT2C receptor; [3]): >30
- Ki (human dopamine D4; Table 9; read-out: hD4 Ki): 11.6 µM
- selectivity ratio hD4 (human dopamine D4; [4]): >100
- Ki (human 5HT1B; Table 7; read-out: h5HT1B Ki): 1.98 µM
- selectivity ratio h5HT1B (human 5HT1B; [5]): >30

SMILES: Cc1ccc(Nc2cc(N3CCCCC3)nc(N3CCN(c4ncccc4C(F)(F)F)CC3)n2)cc1 [Example 34]
- selectivity ratio h5HT2A (Human 5HT2A Receptor; [1]): >100
- Ki (rat D3 receptors; Table 9; read-out: rD3 Ki): 9.92 µM
- selectivity ratio rD3 (rat D3 receptors; [2]): >100
- Ki (rat 5HT2C receptor; Table 7; read-out: r5HT2C Ki): 2.08 µM
- selectivity ratio r5HT2C (rat 5HT2C receptor; [3]): >30
- Ki (human dopamine D4; Table 9; read-out: hD4 Ki): 18.7 µM
- selectivity ratio hD4 (human dopamine D4; [4]): >100
- Ki (human 5HT1B; Table 7; read-out: h5HT1B Ki): 1.06 µM
- selectivity ratio h5HT1B (human 5HT1B; [5]): >30

SMILES: COC[C@@H]1[C@@H](c2ccccc2)OCCN1c1nc(Nc2ccc(C)cc2)cc(N2CCCCC2)n1 [Example 49]
- selectivity ratio h5HT2A (Human 5HT2A Receptor; [1]): >100
- Ki (Human 5HT2A Receptor; read-out: h5HT2A Ki; Table 7): > 50 µM
- selectivity ratio rD3 (rat D3 receptors; [2]): >30
- Ki (rat D3 receptors; read-out: rD3 Ki; Table 9): 14 µM
- selectivity ratio r5HT2C (rat 5HT2C receptor; [3]): >30
- Ki (rat 5HT2C receptor; read-out: r5HT2C Ki; Table 7): 6.69 µM
- selectivity ratio hD4 (human dopamine D4; [4]): >100
- Ki (human dopamine D4; read-out: hD4 Ki; Table 9): 45.8 µM
- selectivity ratio h5HT1B (human 5HT1B; [5]): >30
- Ki (human 5HT1B; read-out: h5HT1B Ki; Table 7): 8.45 µM
